The text below walks through data of patent US20260355182A1, “ISOQUINOLINE DERIVATIVE, SYNTHESIS METHOD THEREFOR, AND USE THEREOF” (Harbin Gloria Pharmaceuticals Co., Ltd., priority 2023, published 2026).

As a reminder, the Kd is the free concentration of one partner at which half of the binding sites on the other are occupied at equilibrium, for simple one-to-one binding.

The target of one series is T1, Pgk1 (Homo sapiens, UniProt P00558).
T1 sequence (P00558 1-417): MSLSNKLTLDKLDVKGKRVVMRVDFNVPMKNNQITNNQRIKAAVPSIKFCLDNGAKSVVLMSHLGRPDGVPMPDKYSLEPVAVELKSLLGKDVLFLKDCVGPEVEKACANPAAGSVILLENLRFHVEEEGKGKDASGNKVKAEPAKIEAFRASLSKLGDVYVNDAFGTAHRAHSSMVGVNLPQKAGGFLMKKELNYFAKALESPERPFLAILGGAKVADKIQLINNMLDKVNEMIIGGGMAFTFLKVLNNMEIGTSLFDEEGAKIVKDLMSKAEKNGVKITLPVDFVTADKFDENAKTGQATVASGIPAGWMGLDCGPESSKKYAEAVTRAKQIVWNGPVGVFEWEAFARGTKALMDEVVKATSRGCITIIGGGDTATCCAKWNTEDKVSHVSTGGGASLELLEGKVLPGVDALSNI
The series is described as follows: Affinity for Pgk1 protein (Biacore T200). It counts as binding. How it is done: Example 30: Determination of Affinities of Compounds for Pgk1 Protein
Purified Pgk1 protein (with a concentration of 1 mg/mL) was immobilized on a Biacore T200 chip. […] The obtained curves can calculate parameters such as affinity and Rmax.
Background: SPR reads the build-up and loss of mass on a sensor chip optically.

Another series has as its system SK-N-SH cells. The series is described as follows: Dose-effect relationship on cellular ATP levels in cultured SK-N-SH cells. It counts as cell-based, human. How it is done:
SK-N-SH cells were seeded in a 6-well plate at a density of 6×10^4 per well. Cells were cultured for 12 hours under 5% O2, and the drug was added. Cells were harvested after 48 hours. Cellular ATP levels were measured using a Promega ATP assay kit. The experiment was repeated 5 times to 7 times.

Series [1] has as its system db/db mice. Description: Hypoglycemic effect in diabetic model db/db mice, intraperitoneal. The note with it: 4 hours. The series is classed as in vivo. As to the method: Gene knockout db/db mice are a classic model of hyperglycemia and obesity. Under normal feeding conditions, mice aged 3 months or older developed hyperglycemia and obesity. After the mice were provided with only drinking water (fasted) for 6 hours, blood was collected from the tail of the mice to measure blood glucose values. Subsequently, different drugs, including saline (control), liraglutide at 0.6 mg/Kg, low-concentration T6 (T6 low, 0.1 mg/Kg), and high-concentration T6 (T6 high, 0.5 mg/Kg), were injected intraperitoneally. 4 hours later, blood was collected from the tail of the mice to measure the blood glucose levels. Each group consisted of 6 mice. Blood glucose levels before administration (Vbefore) and after administration (Vafter) were obtained for each mouse. The effect of the drug on blood glucose (%) was calculated as follows:
(Vbefore−Vafter)×100/Vbefore.

Series [2] concerns db/db mice. Description: Long-term hypoglycemic and weight-loss effects in db/db mice, drinking water. It counts as in vivo. The note with it: drinking water 7 days. As to the method:
The hypoglycemic effect of the novel isoquinoline derivatives via intraperitoneal injection lasted no more than 6 hours. To determine the long-term hypoglycemic effect of T6, T6 was added to drinking water and administered to mice continuously for one week.
After 7 days of treatment, changes in glycated hemoglobin (HbA1c) level, insulin level in mouse blood, and body weight, were measured.

The test system of another series is primary mouse neurons. The series is described as follows: Cellular status and glucose metabolism-related gene expression in primary mouse neurons. The series is classed as cell-based. Particulars: normoxic, 72 h, T6 10 PM (so in the source). From the text: In FIG. 10, A) representative bright-field images show the cellular status of primary neurons after treatment. […] The analyzed genes included G6PD, HK2, LDHA, PDK1, PGK1, and SLC2A1/GLUT1. […] TZ treatment produced a similar but generally more moderate metabolic gene-response profile, including increased LDHA, PDK1, and SLC2A1/GLUT1 expression. […] Error bars indicate variation among measurements. […] The results support the use of T6 or related compounds as agents capable of regulating neuronal metabolic status and glucose metabolism-associated pathways.

A further series has as its system FUS-525-GFP. The series is described as follows: Level of ALS-associated mutant FUS-GFP protein in primary mouse neurons (Western blot). The series is classed as cell-based. Particulars: 5, 10 or 20 μM. How it is done:
Primary mouse neurons were engineered to express GFP-tagged mutant FUS-525, an ALS-associated pathogenic FUS variant, and were treated with vehicle control or compound T6 at 5, 10, or 20 μM. Cell lysates were analyzed by Western blotting using antibodies detecting FUS-GFP, with GAPDH serving as a loading control. In FIG. 11, the FUS-GFP fusion protein was detected at approximately 96 kDa, whereas GAPDH was detected at approximately 38 kDa.
(In general: A western blot detects proteins with antibodies after separation by electrophoresis.)

Consider `Nc1nc(N2CCN(C(=O)[C@H]3CCCO3)CC2)cc2cc3c(cc12)OCC3` [Compound T6], for which, on Pgk1 (+ saturated ADP, read-out: Affinity (KD) in the presence of ADP), the Kd was over 1000 µM. In addition, the Rmax on Pgk1 (drug alone, amount of small-molecule drug bound) is 106 RU. In the series with SK-N-SH cells (50 μM, SK-N-SH cells), the “Inhibition of cell growth” value is recorded as “a tendency to inhibit cell growth”. Also, the minimal effective concentration in the series on SK-N-SH cells (Homo sapiens, 48 h, SK-N-SH cells, read-out: Biologically effective concentration) was about 10 µM. Besides, the “Optimal dose for cellular ATP levels” value in the series with SK-N-SH cells (doses 5, 10 and 50 μM, 48 hours, 5% O2) amounted to 50 µM. Also, in the series with db/db mice [1] (0.1 mg/kg i.p.), the “Hypoglycemic effect (low concentration)” value is recorded as “significant hypoglycemic effects”. Also, the “Hypoglycemic effect (high concentration)” value with db/db mice [1] (0.5 mg/kg i.p.) is “significant hypoglycemic effects”. Besides, the “Glycated hemoglobin (HbA1c) level” value with db/db mice [2] (metformin 350 mg/kg, terazosin 0.3 mg/kg, T6 1.5 mg/kg) is reported as “decrease in glycated hemoglobin (HbA1c) level”. In the series with db/db mice [2] (long-term oral administration), the “Long-term hypoglycemic effect versus terazosin and metformin” value is “better hypoglycemic effect than that of terazosin and metformin”. Also, the “Relative mRNA expression of G6PD” value with primary mouse neurons (control = 1.0) is given as “increased”. Moreover, the Neuronal cellular morphology/status entry in the series on primary mouse neurons (TZ 10 μM) is given as “detectable changes in neuronal cellular morphology/status”. For the same compound, in the series with primary mouse neurons (TZ 10 μM, control = 1.0), the “Relative mRNA expression of HK2” value is given as “not increased”, the “Relative mRNA expression of LDHA” value is “increased”, the “Relative mRNA expression of PDK1” value is “increased” and the “Relative mRNA expression of PGK1” value is on record as “only modestly changed”. The “Relative mRNA expression of SLC2A1/GLUT1” value in the series with primary mouse neurons (TZ 10 μM, control = 1.0) was “increased”. The “Abundance of mutant FUS-GFP protein” value with FUS-525-GFP is reported as “reduced the abundance of mutant FUS-GFP protein”. The GAPDH level entry in the series with FUS-525-GFP (loading control) was “remained largely unchanged”.
